In PMC12300041, “Tricyclic Isatin Derivatives as Anti-Inflammatory Compounds with High Kinase Binding Affinity” (Molecules, 2025):

Columns and labels:
Assay in all cases: KINOMEscan
Assay type in all cases: binding
[1] = molecular target: T1, PRKCE (Homo sapiens, UniProt Q02156)
T1 construct: purchased Eurofins DiscoverX KINOMEscan
How it was run: (§1)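 Compound and kinase were incubated at room temperature for 1 h, the free kinase fraction was captured with an immobilized affinity ligand, and capture was quantified by quantitative PCR; Kd values used a 12-point half-log series up to 33 μM.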

[2] = molecular target: T2, BMPR1A (Homo sapiens, UniProt P36894)
T2 construct: purchased Eurofins DiscoverX KINOMEscan
How it was run: (§2)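 1 h RT binding → immobilized-ligand capture of free kinase → qPCR quantitation. Kd: 12 half-log points, max 33 μM.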

[3] = molecular target: T3, BTK (Homo sapiens, UniProt Q06187)
T3 construct: purchased Eurofins DiscoverX KINOMEscan
How it was run: as §2

[4] = molecular target: T4, SRPK1 (Homo sapiens, UniProt Q96SB4)
T4 construct: purchased Eurofins DiscoverX KINOMEscan
How it was run: as §1

[5] = molecular target: T5, GSK3B (Homo sapiens, UniProt P49841)
T5 construct: purchased Eurofins DiscoverX KINOMEscan
How it was run: as §1

[6] = molecular target: T6, MAP4K3 (Homo sapiens, UniProt Q8IVH8)
T6 construct: purchased Eurofins DiscoverX KINOMEscan
How it was run: as §2

[7] = molecular target: T7, PKN2 (Homo sapiens, UniProt Q16513)
T7 construct: purchased Eurofins DiscoverX KINOMEscan
How it was run: as §2

[8] = molecular target: T8, CDK3 (Homo sapiens, UniProt Q00526)
T8 construct: purchased Eurofins DiscoverX KINOMEscan
How it was run: as §2

[9] = molecular target: T9, ULK3 (Homo sapiens, UniProt Q6PHR2)
T9 construct: purchased Eurofins DiscoverX KINOMEscan
How it was run: as §1

[10] = molecular target: T10, PIM3 (Homo sapiens, UniProt Q86V86)
T10 construct: purchased Eurofins DiscoverX KINOMEscan
How it was run: as §2

[11] = molecular target: T11, GRK4 (Homo sapiens, UniProt P32298)
T11 construct: purchased Eurofins DiscoverX KINOMEscan
How it was run: as §2

[12] = molecular target: T12, ERK3 (Homo sapiens, UniProt Q16659)
T12 construct: purchased Eurofins DiscoverX KINOMEscan
How it was run: as §2

[13] = molecular target: T13, YANK2 (Homo sapiens, UniProt Q9NY57)
T13 construct: purchased Eurofins DiscoverX KINOMEscan
How it was run: as §2

[14] = molecular target: T14, S6K1 (Homo sapiens, UniProt P23443)
T14 construct: purchased Eurofins DiscoverX KINOMEscan
How it was run: as §2

[15] = molecular target: T15, PAK3 (Homo sapiens, UniProt O75914)
T15 construct: purchased Eurofins DiscoverX KINOMEscan
How it was run: as §2

[16] = molecular target: T16, ADCK4 (Homo sapiens, UniProt Q96D53)
T16 construct: purchased Eurofins DiscoverX KINOMEscan
How it was run: as §2

[17] = molecular target: T17, PKAC-β (Homo sapiens, UniProt P22694)
T17 construct: purchased Eurofins DiscoverX KINOMEscan
How it was run: as §2

[18] = molecular target: T18, CAMK1D (Homo sapiens, UniProt Q8IU85)
T18 construct: purchased Eurofins DiscoverX KINOMEscan
How it was run: as §2

[19] = molecular target: T19, NEK2 (Homo sapiens, UniProt P51955)
T19 construct: purchased Eurofins DiscoverX KINOMEscan
How it was run: as §2

[20] = molecular target: T20, ABL1 (Q252H)-P (Homo sapiens, UniProt P00519, Q252H)
T20 construct: purchased Eurofins DiscoverX KINOMEscan
How it was run: as §2

[21] = molecular target: T21, RET (Homo sapiens, UniProt P07949)
T21 construct: purchased Eurofins DiscoverX KINOMEscan
How it was run: as §2

[22] = molecular target: T22, LATS1 (Homo sapiens, UniProt O95835)
T22 construct: purchased Eurofins DiscoverX KINOMEscan
How it was run: as §2

[23] = molecular target: T23, FGFR2 (Homo sapiens, UniProt P21802)
T23 construct: purchased Eurofins DiscoverX KINOMEscan
How it was run: as §2

[24] = molecular target: T24, PRKD1 (Homo sapiens, UniProt Q15139)
T24 construct: purchased Eurofins DiscoverX KINOMEscan
How it was run: as §2

[25] = molecular target: T25, FLT3 (K663Q) (Homo sapiens, UniProt P36888, K663Q)
T25 construct: purchased Eurofins DiscoverX KINOMEscan
How it was run: as §2

[26] = molecular target: T26, EPHA8 (Homo sapiens, UniProt P29322)
T26 construct: purchased Eurofins DiscoverX KINOMEscan
How it was run: as §2

[27] = molecular target: T27, IGF1R (Homo sapiens, UniProt P08069)
T27 construct: purchased Eurofins DiscoverX KINOMEscan
How it was run: as §1

[28] = molecular target: T28, PIK3CA (H1047Y) (Homo sapiens, UniProt P42336, H1047Y)
T28 construct: purchased Eurofins DiscoverX KINOMEscan
How it was run: as §2

[29] = molecular target: T29, PAK6 (Homo sapiens, UniProt Q9NQU5)
T29 construct: purchased Eurofins DiscoverX KINOMEscan
How it was run: as §1

[30] = molecular target: T30, MAP3K19 (Homo sapiens, UniProt Q56UN5)
T30 construct: purchased Eurofins DiscoverX KINOMEscan
How it was run: as §2

[31] = molecular target: T31, CLK2 (Homo sapiens, UniProt P49760)
T31 construct: purchased Eurofins DiscoverX KINOMEscan
How it was run: as §1

[32] = molecular target: T32, FLT3 (R834Q) (Homo sapiens, UniProt P36888, R834Q)
T32 construct: purchased Eurofins DiscoverX KINOMEscan
How it was run: as §2

[33] = molecular target: T33, ACVR1 (Homo sapiens, UniProt Q04771)
T33 construct: purchased Eurofins DiscoverX KINOMEscan
How it was run: as §2

[34] = molecular target: T34, JAK2 (JH1domain-cat.) (Homo sapiens, UniProt O60674)
T34 construct: JAK2 (JH1domain-cat.); purchased Eurofins DiscoverX KINOMEscan
How it was run: as §1

[35] = molecular target: T35, MKNK2 (Homo sapiens, UniProt Q9HBH9)
T35 construct: purchased Eurofins DiscoverX KINOMEscan
How it was run: as §1

[36] = molecular target: T36, MLK1 (Homo sapiens, UniProt P80192)
T36 construct: purchased Eurofins DiscoverX KINOMEscan
How it was run: as §2

[37] = molecular target: T37, ERBB4 (Homo sapiens, UniProt Q15303)
T37 construct: purchased Eurofins DiscoverX KINOMEscan
How it was run: as §1

[38] = molecular target: T38, ACVR1B (Homo sapiens, UniProt P36896)
T38 construct: purchased Eurofins DiscoverX KINOMEscan
How it was run: as §1

[39] = molecular target: T39, WNK4 (Homo sapiens, UniProt Q96J92)
T39 construct: purchased Eurofins DiscoverX KINOMEscan
How it was run: as §2

[40] = molecular target: T40, LOK (Homo sapiens, UniProt O94804)
T40 construct: purchased Eurofins DiscoverX KINOMEscan
How it was run: as §2

T33 sequence (Q04771 21-509): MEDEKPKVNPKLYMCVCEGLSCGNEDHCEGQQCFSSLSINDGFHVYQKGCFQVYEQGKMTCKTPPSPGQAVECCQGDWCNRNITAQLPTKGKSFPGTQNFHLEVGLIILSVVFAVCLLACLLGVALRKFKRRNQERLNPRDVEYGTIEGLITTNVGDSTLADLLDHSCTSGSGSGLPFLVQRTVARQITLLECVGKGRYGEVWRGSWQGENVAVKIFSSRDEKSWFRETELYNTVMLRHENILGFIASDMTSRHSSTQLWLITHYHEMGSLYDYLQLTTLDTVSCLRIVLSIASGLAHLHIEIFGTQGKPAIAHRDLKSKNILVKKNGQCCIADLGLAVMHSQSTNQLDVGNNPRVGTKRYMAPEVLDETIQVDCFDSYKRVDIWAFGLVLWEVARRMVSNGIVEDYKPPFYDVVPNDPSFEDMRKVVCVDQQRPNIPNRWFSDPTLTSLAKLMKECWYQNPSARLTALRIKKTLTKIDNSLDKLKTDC
T12 sequence (Q16659 whole entry): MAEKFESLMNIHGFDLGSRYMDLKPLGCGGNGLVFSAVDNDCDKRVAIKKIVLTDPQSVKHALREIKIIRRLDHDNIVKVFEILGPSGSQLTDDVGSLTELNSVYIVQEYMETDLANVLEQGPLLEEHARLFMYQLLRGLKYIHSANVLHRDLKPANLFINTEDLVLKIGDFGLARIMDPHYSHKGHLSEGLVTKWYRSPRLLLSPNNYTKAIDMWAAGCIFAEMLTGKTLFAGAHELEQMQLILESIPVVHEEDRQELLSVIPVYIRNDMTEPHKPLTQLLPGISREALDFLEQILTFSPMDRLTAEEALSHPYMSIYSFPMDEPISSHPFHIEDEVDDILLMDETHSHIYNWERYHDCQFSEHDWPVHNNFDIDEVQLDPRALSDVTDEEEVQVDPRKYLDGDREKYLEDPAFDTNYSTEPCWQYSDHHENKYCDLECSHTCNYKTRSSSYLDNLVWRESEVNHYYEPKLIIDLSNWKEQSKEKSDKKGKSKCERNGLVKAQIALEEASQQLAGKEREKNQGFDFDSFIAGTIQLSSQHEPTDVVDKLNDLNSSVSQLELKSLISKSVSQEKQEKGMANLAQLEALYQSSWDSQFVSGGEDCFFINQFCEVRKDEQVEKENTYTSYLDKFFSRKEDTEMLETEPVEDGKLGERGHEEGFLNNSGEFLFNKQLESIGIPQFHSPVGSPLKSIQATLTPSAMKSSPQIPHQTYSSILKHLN
T36 sequence (P80192 whole entry): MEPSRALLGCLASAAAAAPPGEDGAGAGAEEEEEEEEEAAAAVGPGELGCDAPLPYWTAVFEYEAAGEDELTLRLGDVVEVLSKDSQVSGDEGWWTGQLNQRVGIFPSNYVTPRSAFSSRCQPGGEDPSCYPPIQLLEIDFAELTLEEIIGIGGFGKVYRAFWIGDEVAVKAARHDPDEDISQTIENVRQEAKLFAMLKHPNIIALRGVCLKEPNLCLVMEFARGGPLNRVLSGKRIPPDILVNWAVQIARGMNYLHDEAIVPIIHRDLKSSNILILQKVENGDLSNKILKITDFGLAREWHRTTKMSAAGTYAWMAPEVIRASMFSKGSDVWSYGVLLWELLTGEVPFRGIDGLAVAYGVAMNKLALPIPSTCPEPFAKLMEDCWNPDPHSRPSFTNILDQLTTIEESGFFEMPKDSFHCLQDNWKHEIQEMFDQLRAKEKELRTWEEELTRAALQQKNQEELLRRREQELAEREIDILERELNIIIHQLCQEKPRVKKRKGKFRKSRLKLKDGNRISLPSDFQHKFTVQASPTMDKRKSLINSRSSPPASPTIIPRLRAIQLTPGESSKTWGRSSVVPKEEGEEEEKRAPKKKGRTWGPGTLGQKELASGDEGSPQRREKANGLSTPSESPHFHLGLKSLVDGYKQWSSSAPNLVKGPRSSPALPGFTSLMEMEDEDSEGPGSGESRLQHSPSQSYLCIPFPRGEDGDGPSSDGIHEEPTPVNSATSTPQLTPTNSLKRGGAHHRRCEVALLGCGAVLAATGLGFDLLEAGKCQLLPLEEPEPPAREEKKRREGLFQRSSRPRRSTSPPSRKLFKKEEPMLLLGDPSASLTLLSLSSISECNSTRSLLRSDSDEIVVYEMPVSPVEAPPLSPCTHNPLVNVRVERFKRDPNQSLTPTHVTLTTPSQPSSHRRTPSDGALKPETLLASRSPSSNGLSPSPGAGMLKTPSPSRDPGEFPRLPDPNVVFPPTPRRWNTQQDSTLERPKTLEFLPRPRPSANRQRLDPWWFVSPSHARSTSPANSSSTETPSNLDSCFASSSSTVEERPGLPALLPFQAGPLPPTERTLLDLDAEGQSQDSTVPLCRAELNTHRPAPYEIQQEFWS
T30 sequence (Q56UN5 whole entry): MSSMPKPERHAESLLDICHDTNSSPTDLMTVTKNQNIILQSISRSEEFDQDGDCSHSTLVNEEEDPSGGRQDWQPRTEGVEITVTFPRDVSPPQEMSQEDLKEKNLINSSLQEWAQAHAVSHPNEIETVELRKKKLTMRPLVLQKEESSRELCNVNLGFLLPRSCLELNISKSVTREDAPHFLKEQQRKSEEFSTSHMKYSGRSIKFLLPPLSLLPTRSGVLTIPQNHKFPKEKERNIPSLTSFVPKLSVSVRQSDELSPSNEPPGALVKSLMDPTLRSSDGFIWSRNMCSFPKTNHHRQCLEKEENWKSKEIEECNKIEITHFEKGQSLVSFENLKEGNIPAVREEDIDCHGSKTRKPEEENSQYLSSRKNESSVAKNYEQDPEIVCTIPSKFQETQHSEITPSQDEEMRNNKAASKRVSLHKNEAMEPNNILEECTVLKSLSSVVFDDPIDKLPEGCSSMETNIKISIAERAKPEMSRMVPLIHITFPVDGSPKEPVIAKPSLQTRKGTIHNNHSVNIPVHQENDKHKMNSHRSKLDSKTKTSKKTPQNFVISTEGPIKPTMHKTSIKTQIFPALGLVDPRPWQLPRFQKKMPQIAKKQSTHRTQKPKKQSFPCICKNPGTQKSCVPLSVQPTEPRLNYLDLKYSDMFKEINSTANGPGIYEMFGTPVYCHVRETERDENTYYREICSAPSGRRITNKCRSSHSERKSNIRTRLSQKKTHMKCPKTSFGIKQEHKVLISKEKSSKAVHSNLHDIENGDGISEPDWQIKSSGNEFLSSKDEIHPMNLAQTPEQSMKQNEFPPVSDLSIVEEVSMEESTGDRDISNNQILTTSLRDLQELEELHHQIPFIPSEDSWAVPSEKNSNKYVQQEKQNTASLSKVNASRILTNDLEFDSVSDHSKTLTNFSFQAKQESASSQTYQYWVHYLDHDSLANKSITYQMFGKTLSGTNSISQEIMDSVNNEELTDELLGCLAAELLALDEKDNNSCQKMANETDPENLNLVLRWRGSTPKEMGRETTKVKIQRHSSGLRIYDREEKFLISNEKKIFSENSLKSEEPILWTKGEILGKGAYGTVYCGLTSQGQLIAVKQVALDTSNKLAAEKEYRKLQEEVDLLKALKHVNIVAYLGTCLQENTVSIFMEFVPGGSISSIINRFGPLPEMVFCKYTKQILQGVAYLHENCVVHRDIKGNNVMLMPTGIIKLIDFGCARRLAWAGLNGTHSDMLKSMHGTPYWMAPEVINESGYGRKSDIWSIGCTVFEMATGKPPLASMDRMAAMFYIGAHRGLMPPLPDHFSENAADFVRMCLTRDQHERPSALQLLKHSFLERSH
T37 sequence (Q15303 26-1308): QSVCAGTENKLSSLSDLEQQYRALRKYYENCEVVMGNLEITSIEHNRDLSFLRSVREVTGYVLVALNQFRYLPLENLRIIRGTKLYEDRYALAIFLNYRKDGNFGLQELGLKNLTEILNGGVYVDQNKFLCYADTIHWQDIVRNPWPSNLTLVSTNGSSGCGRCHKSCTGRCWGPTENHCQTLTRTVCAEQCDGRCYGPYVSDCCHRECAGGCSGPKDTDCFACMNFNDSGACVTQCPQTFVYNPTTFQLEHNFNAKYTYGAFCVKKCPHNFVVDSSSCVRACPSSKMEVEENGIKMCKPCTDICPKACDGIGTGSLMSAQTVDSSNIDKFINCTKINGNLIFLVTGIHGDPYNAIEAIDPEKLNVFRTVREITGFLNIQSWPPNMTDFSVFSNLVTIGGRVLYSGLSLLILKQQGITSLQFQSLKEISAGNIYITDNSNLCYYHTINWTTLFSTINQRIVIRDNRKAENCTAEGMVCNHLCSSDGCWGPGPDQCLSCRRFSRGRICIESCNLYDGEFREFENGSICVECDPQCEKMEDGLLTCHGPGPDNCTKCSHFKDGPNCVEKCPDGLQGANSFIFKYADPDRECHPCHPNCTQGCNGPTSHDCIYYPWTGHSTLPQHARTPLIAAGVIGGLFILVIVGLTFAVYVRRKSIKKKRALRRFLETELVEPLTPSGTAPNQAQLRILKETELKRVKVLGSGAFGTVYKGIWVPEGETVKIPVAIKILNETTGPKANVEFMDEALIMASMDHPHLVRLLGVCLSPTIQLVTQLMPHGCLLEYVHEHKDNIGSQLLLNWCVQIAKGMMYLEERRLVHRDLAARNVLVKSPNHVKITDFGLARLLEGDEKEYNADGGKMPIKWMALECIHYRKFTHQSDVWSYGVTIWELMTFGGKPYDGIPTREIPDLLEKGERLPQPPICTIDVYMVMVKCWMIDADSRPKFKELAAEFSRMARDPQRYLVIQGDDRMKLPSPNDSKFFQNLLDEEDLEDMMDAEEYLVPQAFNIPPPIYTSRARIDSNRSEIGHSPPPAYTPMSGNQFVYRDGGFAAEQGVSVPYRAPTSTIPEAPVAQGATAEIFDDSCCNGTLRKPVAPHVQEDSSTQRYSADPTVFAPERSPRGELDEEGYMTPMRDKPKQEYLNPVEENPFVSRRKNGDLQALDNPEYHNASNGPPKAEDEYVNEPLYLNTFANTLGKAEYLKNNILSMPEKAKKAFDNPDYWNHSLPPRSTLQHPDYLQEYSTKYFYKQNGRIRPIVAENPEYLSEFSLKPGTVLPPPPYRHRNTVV

SMILES: O=C1Nc2c(cc([N+](=O)[O-])c3c2CCCC3)C1=NO [Compound 5d, 3-(Hydroxyimino)-5-nitro-1,3,6,7,8,9-hexahydro-2H-benzo[g]indol-2-one]
- inhibition at 10 µM [1]: 61%
- inhibition at 10 µM [2]: 18%
- inhibition at 10 µM [3]: 39%
- inhibition at 10 µM [4]: 53%
- inhibition at 10 µM [5]: 29%
- inhibition at 10 µM [6]: 11%
- inhibition at 10 µM [7]: 84%
- inhibition at 10 µM [8]: 13%
- inhibition at 10 µM [9]: 55%
- inhibition at 10 µM [10]: 95.8%
- inhibition at 10 µM [11]: 34%
- inhibition at 10 µM [12]: 0%
- inhibition at 10 µM [13]: 0%
- inhibition at 10 µM [14]: 51%
- inhibition at 10 µM [15]: 67%
- inhibition at 10 µM [16]: 12%
- inhibition at 10 µM [17]: 2%
- inhibition at 10 µM [18]: 65%
- inhibition at 10 µM [19]: 16%
- inhibition at 10 µM [20]: 47%
- inhibition at 10 µM [21]: 8%
- inhibition at 10 µM [22]: 0%
- inhibition at 10 µM [23]: 19%
- inhibition at 10 µM [24]: 61%
- inhibition at 10 µM [25]: 5%
- inhibition at 10 µM [26]: 0%
- inhibition at 10 µM [27]: 0%
- inhibition at 10 µM [28]: 36%
- inhibition at 10 µM [29]: 39%
- inhibition at 10 µM [30]: 95.8%
- inhibition at 10 µM [31]: 95.9%
- inhibition at 10 µM [32]: 10%
- inhibition at 10 µM [33]: 2%
- inhibition at 10 µM [34]: 42%
- inhibition at 10 µM [35]: 93.2%
- inhibition at 10 µM [36]: 18%
- inhibition at 10 µM [37]: 4%
- inhibition at 10 µM [38]: 10%
- inhibition at 10 µM [39]: 1%
- inhibition at 10 µM [40]: 73%
